Assay results from US11723910B1, “Compositions and methods for modulating the endothelial barrier” (University of South Florida, priority 2019, dated 2023).

How the values were obtained:
[1] = system: HUVEC monolayers treated with CCCP; experiment: CCCP-induced barrier disruption (TER) in HUVEC; type: cell-based, human; settings: 10 μM CCCP
Protocol: (§1) Because ATP depletion has been reported to disrupt the endothelial barrier (Unno N, et al. (1996) Hyperpermeability and ATP depletion induced by chronic hypoxia or glycolytic inhibition in Caco-2BBe monolayers. Am J Physiol 270(6 Pt 1):G1010-1021), assessment was performed to determine whether carbonyl cyanide m-chlorophenyl hydrazine (CCCP) induced mitochondrial insult causes barrier disruption and whether the barrier-enhancing properties of PRE-084 can counteract this effect. […] To further validate the contribution of σ1 to endothelial barrier function, siRNA was used to selectively reduce σ1 expression in HUVEC.
(§2) HUVEC and media were obtained from LifeLine cell technology, PRE-084 from Tocris Biotechne, and CCCP from Abcam. TER was determined with an Electrical Cell-Substrate Impedance Sensor (ECIS; Applied Biophysics). For transfection, 200 nM σ1 siRNA (SEQ ID NO: 2: […]) or control non-targeting RNA (SEQ ID NO: 3: […]) purchased from Dharmacon was introduced with the Nucleofector II device (Lonza). Cell culture procedures, TER recordings, and protein isolation and transfection protocols have been previously described. Western blotting was done using WES (Protein Simple). […]

HUVEC = experiment: Seahorse glycolytic rate assay in HUVEC; type: cell-based, human; settings: Afobazole 300 μM 3 hours prior to the assay vs vehicle
Protocol: FIGS. 2A and 2B show glycolytic PER (glycoPER) and oxygen consumption rate (OCR) obtained from glycolytic rate assay of cells treated with 100 μM PRE-084 or vehicle for 3 hours. […] FIGS. 2D-2H show assay parameters obtained from the glycolytic rate assay. FIGS. 2I-2K show assay parameters from ATP rate assay. *P<0.05.
(§3) HUVEC and media were obtained from LifeLine cell technology, PRE-084 from Tocris Biotechne, and CCCP from Abcam. TER was determined with an Electrical Cell-Substrate Impedance Sensor (ECIS; Applied Biophysics). For transfection, 200 nM σ1 siRNA (SEQ ID NO: 2: GGCUUGAGCUCACCACCUA) or control non-targeting RNA (SEQ ID NO: 3: UGGUUUACAUGUUUUCCUA) purchased from Dharmacon was introduced with the Nucleofector II device (Lonza). Cell culture procedures, TER recordings, and protein isolation and transfection protocols have been previously described. Western blotting was done using WES (Protein Simple). Rabbit anti σ1 was purchased from Novus Biologicals NBP1-82479 and mouse anti (β-actin was from cell signaling #3700. Both primaries were used at 1:50 dilution. Seahorse xfp analyzer was used for glycolytic rate and ATP rate with assay kits (Agilent) according to manufacturer's instructions using 40.000 cells/well. Calculation of assay parameters was done using Wave software with its built-in report generators and statistical analysis was done using Prism 7.

[2] = system: human umbilical vein endothelial cell (HUVEC) monolayers; experiment: Transendothelial electrical resistance (TER, ECIS) of HUVEC monolayers; type: cell-based; settings: mean TER at 70 h vs non-targeting RNA
Protocol: as §3

sigma-1 receptor (σ1) = experiment: Western blot of σ1 expression after siRNA knockdown in HUVEC; type: cell-based, human; settings: 200 nM σ1 siRNA
Protocol: as §1, §2

With “carbonyl cyanide m-chlorophenyl hydrazine [CCCP]” the “transendothelial electrical resistance (TER) after CCCP” value [1] was “significantly lowered”.
In the case of `CCOc1ccc2nc(SCCN3CCOCC3)[nH]c2c1` [Afobazole], the “glycolytic proton efflux rate” value (HUVEC) is reported as “enhances” and the oxygen consumption rate (HUVEC) is reported as “lowers”.
For “σ1 siRNA: σ1 siRNA (SEQ ID NO: 2: GGCUUGAGCUCACCACCUA) purchased from Dharmacon (listed as RNA, chemistry not given here)”, the “TER in σ1 siRNA-treated cells compared to control” value [2] was “significant decreases”, the “decrease in σ1 protein compared to controls” value (sigma-1 receptor (σ1); 48-h post-transfection) was 47% and the “decrease in σ1 protein compared to controls” value (sigma-1 receptor (σ1); 70-h post-transfection) was 74%.
